Measurements reported in patent US8906904B2, “Alkoxy pyrazoles as soluble guanylate cyclase activators” (Boehringer Ingelheim International GmbH, priority 2012, dated 2014).

Assay: human liver microsome (HLM) metabolic stability assay
Format: in vitro ADME
Conditions: human liver microsomes; % hepatic blood flow calculated from t1/2
Procedure, shortened: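 Compounds at 1 uM incubated with human liver microsomes plus NADPH at 37° C., sampled at 0, 5, 15, 30 and 60 min into cold acetonitrile and quantified by LC/MS/MS. t½ from the slope of ln % remaining vs time; CLint, CLh and % Qh derived from it (n=1).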

| Compound | HLM (% Qh) |
| --- | --- |
| CCOc1c(C(=O)O)cnn1-c1cccc(-c2cccc(C)c2OCc2ccc3c(c2C)CCN(CC2COCCO2)C3)n1 (stereo in doubt) [Compound 185, 1-{6-[2-(2-(S)-1-[1,4]Dioxan-2-ylmethyl-5-methyl-1,2,3,4-tetrahydro-isoquinolin-6-ylmethoxy)-3-methyl-phenyl]-pyridin-2-yl}-5-ethoxy-1H-pyrazole-4-carboxylic acid] | <24 |
| COc1c(C(=O)O)cnn1-c1cccc(-c2cccc(C)c2OCc2ccc3c(c2)CCN(C2CCOC2)C3)n1 (centres unmarked) [Compound 15] | <24 |
| COc1c(C(=O)O)cnn1-c1cccc(-c2cccc(C)c2OCc2ccc3c(c2C)CCN(C2COC2)C3)n1 [Compound 16] | <24 |
| COc1c(C(=O)O)cnn1-c1cccc(-c2cccc(C)c2OCc2ccc3c(c2Cl)CCN(C2COC2)C3)n1 [Compound 17] | 31 |
| COc1c(C(=O)O)cnn1-c1cccc(-c2cccc(C)c2OCc2ccc3c(c2Cl)CCN(C2CCOCC2)C3)n1 [Compound 18] | <24 |
| COc1c(C(=O)O)cnn1-c1cccc(-c2cccc(C)c2OCc2ccc3c(c2Cl)CCN(CC2(C)COC2)C3)n1 [Compound 19] | 29 |
| COc1c(C(=O)O)cnn1-c1cccc(-c2cccc(C)c2OCc2ccc3c(c2Cl)CCN(C2CCC2)C3)n1 [Compound 20] | 38 |
| COc1c(C(=O)O)cnn1-c1cccc(-c2cccc(C)c2OCc2ccc3c(c2Cl)CCN(CC(C)(C)C)C3)n1 [Compound 21] | <24 |
| COc1c(C(=O)O)cnn1-c1cccc(-c2cccc(C)c2OCc2ccc3c(c2Cl)CCN(C2CCOC2)C3)n1 (centres unmarked) [Compound 22] | 33 |
| COCC(C)N1CCc2cc(COc3c(C)cccc3-c3cccc(-n4ncc(C(=O)O)c4OC)n3)ccc2C1 (centres unmarked) [Compound 23] | <24 |
| COc1c(C(=O)O)cnn1-c1cccc(-c2cccc(C)c2OCc2ccc3c(c2)CCN(CC2CC2)C3)n1 [Compound 24] | <24 |
| COc1c(C(=O)O)cnn1-c1cccc(-c2cccc(C)c2OCc2ccc3c(c2)CCN(CC2CCC2)C3)n1 [Compound 25] | 29 |
| COc1c(C(=O)O)cnn1-c1cccc(-c2cccc(C)c2OCc2ccc3c(c2)CCN(CC2CC(F)(F)C2)C3)n1 [Compound 26] | 29 |
| COc1c(C(=O)O)cnn1-c1cccc(-c2cccc(C)c2OCc2ccc3c(c2C)CCN(C2CCOCC2)C3)n1 [Compound 27] | <24 |
| COc1c(C(=O)O)cnn1-c1cccc(-c2cccc(C)c2OCc2ccc3c(c2C)CCN(CC2(C)COC2)C3)n1 [Compound 28] | <24 |
| COc1c(C(=O)O)cnn1-c1cccc(-c2cccc(C)c2OCc2ccc3c(c2C)CCN(CC2CC(F)(F)C2)C3)n1 [Compound 29] | 28 |
| COc1c(C(=O)O)cnn1-c1cccc(-c2cc(C)cc(C)c2OCc2ccc3c(c2C)CCN(C2CCOCC2)C3)n1 [Compound 180] | <24 |
| COc1c(C(=O)O)cnn1-c1cccc(-c2cc(C)cc(C)c2OCc2ccc3c(c2)CCN(C2CCOCC2)C3)n1 [Compound 181] | <24 |
| COc1ccc(OCc2ccc3c(c2C)CCN(C2CCOCC2)C3)c(-c2cccc(-n3ncc(C(=O)O)c3OC)n2)c1 [Compound 182] | <24 |
| COc1c(C(=O)O)cnn1-c1cccc(-c2cccc(C)c2OCc2ccc3c(c2C)CCN(C2CCOCC2)CC3)n1 [Compound 184] | <24 |

| Compound | HLM (% Qh) |
| --- | --- |
| COc1c(C(=O)O)cnn1-c1cccc(-c2cccc(C)c2OCc2cc(C)c3c(c2)CCN(C2COC2)C3)n1 [Compound 186] | <24 |
| COc1c(C(=O)O)cnn1-c1cccc(-c2cccc(C)c2OCc2ccc3c(c2)CCN(C[C@@H]2CCOC2)C3)n1 [Compound 188] | <24 |
| CCOc1c(C(=O)O)cnn1-c1cccc(-c2cccc(C)c2OCc2ccc3c(c2C)CCN(C[C@@H]2CCOC2)C3)n1 [Compound 189] | 26 |
| CCOc1c(C(=O)O)cnn1-c1cccc(-c2cccc(C)c2OCc2ccc3c(c2C)CCN(CC2(C)COC2)CC3)n1 [Compound 190] | 43 |
| COc1c(C(=O)O)cnn1-c1cccc(-c2cccc(C)c2OCc2ccc3c(c2C)CCN(C[C@@H]2CCOC2)C3)n1 [Compound 191] | <24 |
| CCOc1c(C(=O)O)cnn1-c1cccc(-c2cccc(C)c2OCc2ccc3c(c2C)CCN(C[C@H]2CCOC2)C3)n1 [Compound 193] | <24 |
| CCOc1c(C(=O)O)cnn1-c1cccc(-c2cccc(C)c2OCc2ccc3c(c2C)CCN(C2CCOCC2)C3=O)n1 [Compound 194] | <24 |
| CCOc1c(C(=O)O)cnn1-c1cccc(-c2cccc(C)c2OCc2cc(C)c3c(c2)CCN([C@@H]2CCCOC2)C3)n1 [Compound 195] | <24 |
| CCOc1c(C(=O)O)cnn1-c1cccc(-c2cccc(C)c2OCc2ccc3c(c2C)CCN(C(C)COC)CC3)n1 (centres unmarked) [Compound 196] | <24 |
| CCOc1c(C(=O)O)cnn1-c1cccc(-c2cccc(C)c2OCc2cc(C)c3c(c2)CCN([C@H]2CCCOC2)C3)n1 [Compound 197] | <24 |
| COc1c(C(=O)O)cnn1-c1cccc(-c2cccc(C)c2OCc2ccc3c(c2C)CCN(C[C@@H]2CCCCO2)C3)n1 [Compound 198] | <24 |
| COc1c(C(=O)O)cnn1-c1cccc(-c2cccc(C)c2OCc2ccc3c(c2C)CCN(C[C@H]2CCCCO2)C3)n1 [Compound 199] | <24 |
| CCOc1c(C(=O)O)cnn1-c1cccc(-c2cccc(C)c2OCc2cc(C)c3c(c2)CCN(CC2(C)COC2)C3)n1 [Compound 200] | 40 |
| COc1c(C(=O)O)cnn1-c1cccc(-c2cccc(C)c2OCc2cc(F)c3c(c2)CCN(C2CCOCC2)C3)n1 [Compound 201] | <24 |
| COc1c(C(=O)O)cnn1-c1cccc(-c2cccc(C)c2OCc2ccc3c(c2C)CCN(C[C@H]2COCCO2)CC3)n1 [Compound 203] | <24 |
| COc1c(C(=O)O)cnn1-c1cccc(-c2cccc(C)c2OCc2ccc3c(c2C)CCN(C[C@@H]2COCCO2)CC3)n1 [Compound 204] | <24 |
| COc1c(C(=O)O)cnn1-c1cccc(-c2cccc(C)c2OCc2ccc3c(c2C)CCN([C@@H]2CCOC2)CC3)n1 [Compound 207] | <24 |
| CCOc1c(C(=O)O)cnn1-c1cccc(-c2cccc(C)c2OCc2ccc3c(c2C)CCN(CC2(F)COC2)C3)n1 [Compound 208] | <24 |
| COc1c(C(=O)O)cnn1-c1cccc(-c2ccccc2OCc2ccc3c(c2)CCN(C2CCOCC2)C3)n1 [Compound 209] | <24 |
| CCOc1c(C(=O)O)cnn1-c1cccc(-c2cccc(C)c2OCc2cc(C)c3c(c2)CCN(C(C)COC)C3)n1 (centres unmarked) [Compound 210] | <24 |

| Compound | HLM (% Qh) |
| --- | --- |
| CCOc1c(C(=O)O)cnn1-c1cccc(-c2cccc(C)c2OCc2ccc3c(c2C)CCN(C[C@@H]2COCCO2)CC3)n1 [Compound 211] | <24 |
| CCOc1c(C(=O)O)cnn1-c1cccc(-c2cccc(C)c2OCc2ccc3c(c2C)CCN(C[C@H]2COCCO2)CC3)n1 [Compound 212] | <24 |
| CCOc1c(C(=O)O)cnn1-c1cccc(-c2cccc(C)c2OCc2ccc3c(c2)CCN(C2COC2)CC3)n1 [Compound 213] | <24 |
| CCOc1c(C(=O)O)cnn1-c1cccc(-c2cccc(C)c2OCc2ccc3c(c2C)CCN(C[C@H]2CCCCO2)CC3)n1 [Compound 214] | <24 |
| CCOc1c(C(=O)O)cnn1-c1cccc(-c2cccc(C)c2OCc2ccc3c(c2C)CCN(C[C@@H]2CCCCO2)CC3)n1 [Compound 215] | <24 |
| COc1c(C(=O)O)cnn1-c1cccc(-c2cccc(C)c2OCc2ccc3c(c2)C(C)(C)CN(C2CCOC2)C3)n1 (centres unmarked) [Compound 217] | 89 |
| COc1c(C(=O)O)cnn1-c1cccc(-c2cccc(C)c2OCc2ccc3c(c2)C(C)(C)CN(C2CCCOC2)C3)n1 (centres unmarked) [Compound 218] | 89 |
| COc1c(C(=O)O)cnn1-c1cccc(-c2cccc(C)c2OCc2ccc3c(c2)C(C)(C)CN(CC2COCCO2)C3)n1 (centres unmarked) [Compound 219] | 89 |
| CCOc1c(C(=O)O)cnn1-c1cccc(-c2cccc(C)c2OCc2ccc3c(c2OC)CCN(C2CCOCC2)C3)n1 [Compound 220] | <24 |
| CCOc1c(C(=O)O)cnn1-c1cccc(-c2cccc(C)c2OCc2ccc3c(c2OC)CCN(C2COC2)C3)n1 [Compound 221] | <24 |
| COc1c(C(=O)O)cnn1-c1cccc(-c2cccc(C)c2OCc2ccc3c(c2C)CCN(C[C@H]2CCCO2)CC3)n1 [Compound 222] | <24 |
| COc1c(C(=O)O)cnn1-c1cccc(-c2cccc(C)c2OCc2ccc3c(c2C)CCN(C[C@@H]2CCCO2)CC3)n1 [Compound 223] | <24 |
| CCOc1c(C(=O)O)cnn1-c1cccc(-c2cccc(C)c2OCc2ccc3c(c2C)CCN([C@H]2CCOC2)CC3)n1 [Compound 225] | <24 |
| CCOc1c(C(=O)O)cnn1-c1cccc(-c2cccc(C)c2OCc2ccc3c(c2C)CCN(C[C@H]2CCO2)CC3)n1 [Compound 226] | 52 |
| CCOc1c(C(=O)O)cnn1-c1cccc(-c2cccc(C)c2OCc2ccc3c(c2C)CCN([C@@H]2CCOC2)CC3)n1 [Compound 227] | 25 |
| CCOc1c(C(=O)O)cnn1-c1cccc(-c2cccc(C)c2OCc2ccc3c(c2C)CCN(C[C@@H]2CCO2)CC3)n1 [Compound 228] | 44 |
| COc1c(C(=O)O)cnn1-c1cccc(-c2cccc(C)c2OCc2cc(F)c3c(c2)CCN(C[C@H]2CCCCO2)C3)n1 [Compound 229] | 34 |
| COc1c(C(=O)O)cnn1-c1cccc(-c2cccc(C)c2OCc2ccc3c(c2F)CCN(C[C@@H]2COCCO2)C3)n1 [Compound 231] | <24 |
| CCOc1c(C(=O)O)cnn1-c1cccc(-c2cccc(C)c2OCc2ccc3c(c2C)CCN(C[C@H]2CCCCO2)C3)n1 [Compound 232] | <24 |
